# In PMC4122495, “Small Molecule Deubiquitinase Inhibitors Promote Macrophage Anti-Infective Capacity” (PLoS ONE, 2014):
# Experiments:
# [1] = system: Norwalk virus replicon; assay: HuNoV (Norwalk virus) replicon assay in HG23 cells, qRT-PCR; format: cell-based, human norovirus; details: 2.5 µM for 2 hours, genomes quantitated after 24 h by qRT-PCR, normalized to DMSO
# Experimental: HG23 cells containing the Norwalk virus replicon plasmid under G418-selection were plated at 5×10^5 cells per well in 12-well plates and allowed to attach overnight. Afterwards, media was aspirated and replaced with fresh media containing DMSO, 5 µM WP1130, or 2.5 µM compound 9. DMSO and WP1130 remained on the cells for 24 hours, whereas compound 9 was removed after 2 hours. At the end of the experiment, media was aspirated, cells were washed once with PBS and total cellular RNA was isolated using the QIAGEN RNeasy Mini kit (QIAGEN, Valencia, CA). Following the manufacturer’s protocol, RNA was subjected to two rounds of DNase treatment. First, an on-column RNase-free DNase treatment (QIAGEN, Valencia, CA) was performed for 15 minutes at room temperature. After elution, another round of DNase treatment was performed using the DNA-free DNase removal kit (Ambion, Austin, TX). RNA concentration and purity were measured using a spectrophotometer, calculating the 260/280 ratio. RNA integrity (as well as the absence of DNA contamination) was confirmed by One-Step Reverse Transcription-Polymerase Chain Reaction (RT-PCR) using “No RT” controls. Norwalk virus genomes were then quantitated by qRT-PCR as previously described.
# [2] = system: L. monocytogenes; assay: L. monocytogenes intracellular growth assay in RAW264.7 macrophages; format: cell-based, Listeria monocytogenes 10403S; set-up: decrease in Listeria intracellular viability: concentration or dose not given beside the values
# Experimental: RAW264.7 cells were cultured at an initial density of 4×10^6 cells per 24-well plate and allowed to adhere overnight. Macrophages were treated with 2.5 or 5 µM of DUB inhibitors dissolved in dimethyl sulfoxide (DMSO) for 0.5 or 1 h or with equivalent volume of DMSO (vehicle control) at 37°C. For dose-response curves, macrophages were incubated with 5, 2.5, 1 and 0.5 µM of compounds 1, 3 and 4 or 2.5, 2, 1 and 0.5 µM of compounds 2 and 9 for 0.5 h or 1 h at 37°C. DUB inhibitors were removed from cell culture prior to infection by changing the medium. Macrophages were infected with L. monocytogenes at a multiplicity of infection (MOI) of 1 for 0.5 h at 37°C. The inoculum was removed by washing infected cells three times with Dulbecco’s phosphate-buffered saline (PBS), and the cells were incubated in medium containing 10 µg/ml of gentamicin to kill extracellular bacteria for the duration of the experiment. At 8 h post-infection, cells were lysed in 1 ml 0.1% Triton X-100, serially diluted and plated on Luria-Bertani (LB) agar to enumerate the number of colony forming units (CFU). CFU were counted using the Acolyte SuperCount (Microbiology International, Frederick, MD) plate reader and software. Results were normalized to DMSO-treated cells.
# Supplementary file pone.0104096.s001.tif: Figure S1 Dose-response curves for selected compounds. RAW264.7 cells were incubated with DMSO (equivalent volume) or the varying concentrations of WP1130-derivatives for 0.5 h (compounds 1, 2, 4 and 9) or 1 h (compound 3). After incubation, the medium was removed, and cells were infected at 37°C for 0.5 h at an MOI of 1 with L. monocytogenes in the absence of additional drugs. Following the 0.5 h infection, cells were washed and gentamycin (10 µg/ml) was added to kill extracellular bacteria. Intracellular bacteria were enumerated at 8 h post-infection. The data represent percent of Listeria intracellular growth compared to DMSO-treated cells from three independent experiments performed in triplicate. Non-linear regression curves were performed using the GraphPad Prism software. (TIF) Click here for additional data file.
smiles,measurement,setting,value
CCCC(NC(=O)/C(C#N)=C/c1nc(Cl)ccc1Cl)c1ccc(OCCN2CCOCC2)cc1 (stereo not shown) [Compound 9],reduction of detectable Norwalk virus genomes,[1],84.7%
same,EC50,"[2]; Listeria monocytogenes, RAW264.7 pre-treated with varying concentrations, then infected (MOI 1), intracellular CFU at 8 h post-infection, non-linear regression",1920 nM
same,decrease in Listeria intracellular viability,"[2]; RAW264.7 pre-treated at each compound's working condition (Fig. 2B, 5B), 8 h post-infection, vs DMSO",66.1%
same,Decrease intracellular listeria viability (%),"[2]; conditions of Figure 2B and Figure 5B, maximal effective drug concentration used, 8 h post-infection, vs DMSO",66.1%
